{
  "source": "patent US12252469B2",
  "about": "“Crystalline forms of (E)-N-hydroxy-3-(1-(phenylsulfonyl)indolin-5-yl)acrylamide” (ANBOGEN THERAPEUTICS INC., priority 2023, dated 2025)",
  "key": {"DVS water uptake": {"assay": "DVS water uptake", "assay_type": "physicochemical", "method": "DVS was measured via a SMS (Surface Measurement Systems) DVS Intrinsic or Intrinsic Plus. The relative humidity at 25° C. were calibrated against deliquescence point of LiCl, Mg(NO3)2 and KCl."}, "[1]": {"assay": "Competitive slurry, inter-conversion of Type A and Type B", "assay_type": "physicochemical", "settings": "t-Butanol and t-Butanol/H2O, RT; water activity calculated from KF by COSMOlogic"}, "[2]": {"assay": "Solid stability evaluation for 1/2/4 weeks;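 also: Solid-state physical and chemical stability tracked by XRPD for form, KF for water content, and HPLC for purity and assay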"}, "[3]": {"settings": "all storage conditions, 4 weeks"}},
  "data": [
    {"smiles": "O=C(/C=C/c1ccc2c(c1)CCN2S(=O)(=O)c1ccccc1)NO", "note": "[Type A, (E)-N-hydroxy-3-(1-(phenylsulfonyl)indolin-5-yl) acrylamide]", "values": [
      {"measurement": "water uptake (DVS)", "setting": "DVS water uptake; 25° C./80% RH", "value": 0.1396, "unit": "%"},
      {"measurement": "form change after DVS test (XRPD)", "setting": "DVS water uptake; after DVS test", "value": "no form change"},
      {"measurement": "water activity at which the form was obtained in competitive slurry", "setting": "[1]", "value": "≥ 0.37"},
      {"measurement": "Assay", "setting": "[2]; 25° C./60% RH, 1 week", "value": 96.4, "unit": "%"},
      {"measurement": "Form (XRPD)", "setting": "[2]; 25° C./60% RH, 1 week", "value": "Type A"},
      {"measurement": "HPLC purity", "setting": "[2]; 25° C./60% RH, 1 week", "value": 99.85, "unit": "Area %"},
      {"measurement": "Assay", "setting": "[2]; 25° C./60% RH, 2 weeks", "value": 94.7, "unit": "%"},
      {"measurement": "Form (XRPD)", "setting": "[2]; 25° C./60% RH, 2 weeks", "value": "Type A"},
      {"measurement": "HPLC purity", "setting": "[2]; 25° C./60% RH, 2 weeks", "value": 99.83, "unit": "Area %"},
      {"measurement": "Assay", "setting": "[2]; 25° C./60% RH, 4 weeks", "value": 96.4, "unit": "%"},
      {"measurement": "Form (XRPD)", "setting": "[2]; 25° C./60% RH, 4 weeks", "value": "Type A"},
      {"measurement": "HPLC purity", "setting": "[2]; 25° C./60% RH, 4 weeks", "value": 99.84, "unit": "Area %"},
      {"measurement": "KF (water content)", "setting": "[2]; 25° C./60% RH, 4 weeks", "value": 2.8030, "unit": "%"},
      {"measurement": "Assay", "setting": "[2]; 40° C./75% RH, 1 week", "value": 96.6, "unit": "%"},
      {"measurement": "Form (XRPD)", "setting": "[2]; 40° C./75% RH, 1 week", "value": "Type A"},
      {"measurement": "HPLC purity", "setting": "[2]; 40° C./75% RH, 1 week", "value": 99.84, "unit": "Area %"},
      {"measurement": "Assay", "setting": "[2]; 40° C./75% RH, 2 weeks", "value": 95.6, "unit": "%"},
      {"measurement": "Form (XRPD)", "setting": "[2]; 40° C./75% RH, 2 weeks", "value": "Type A"},
      {"measurement": "HPLC purity", "setting": "[2]; 40° C./75% RH, 2 weeks", "value": 99.84, "unit": "Area %"},
      {"measurement": "Assay", "setting": "[2]; 40° C./75% RH, 4 weeks", "value": 96.1, "unit": "%"},
      {"measurement": "Form (XRPD)", "setting": "[2]; 40° C./75% RH, 4 weeks", "value": "Type A"},
      {"measurement": "HPLC purity", "setting": "[2]; 40° C./75% RH, 4 weeks", "value": 99.85, "unit": "Area %"},
      {"measurement": "KF (water content)", "setting": "[2]; 40° C./75% RH, 4 weeks", "value": 4.1509, "unit": "%"},
      {"measurement": "Assay", "setting": "[2]; 60° C., 1 week", "value": 96.2, "unit": "%"},
      {"measurement": "Form (XRPD)", "setting": "[2]; 60° C., 1 week", "value": "Type A"},
      {"measurement": "HPLC purity", "setting": "[2]; 60° C., 1 week", "value": 99.83, "unit": "Area %"},
      {"measurement": "Assay", "setting": "[2]; 60° C., 2 weeks", "value": 95.0, "unit": "%"},
      {"measurement": "Form (XRPD)", "setting": "[2]; 60° C., 2 weeks", "value": "Type A"},
      {"measurement": "HPLC purity", "setting": "[2]; 60° C., 2 weeks", "value": 99.76, "unit": "Area %"},
      {"measurement": "Assay", "setting": "[2]; 60° C., 4 weeks", "value": 95.7, "unit": "%"},
      {"measurement": "Form (XRPD)", "setting": "[2]; 60° C., 4 weeks", "value": "Type A"},
      {"measurement": "HPLC purity", "setting": "[2]; 60° C., 4 weeks", "value": 99.82, "unit": "Area %"},
      {"measurement": "KF (water content)", "setting": "[2]; 60° C., 4 weeks", "value": 4.3786, "unit": "%"},
      {"measurement": "Assay", "setting": "[2]; Initial", "value": 95.6, "unit": "%"},
      {"measurement": "Form (XRPD)", "setting": "[2]; Initial", "value": "Type A"},
      {"measurement": "HPLC purity", "setting": "[2]; Initial", "value": 99.84, "unit": "Area %"},
      {"measurement": "KF (water content)", "setting": "[2]; Initial", "value": 2.8220, "unit": "%"},
      {"measurement": "Assay", "setting": "[2]; […], 1 week", "value": 96.3, "unit": "%"},
      {"measurement": "Form (XRPD)", "setting": "[2]; […], 1 week", "value": "Type A"},
      {"measurement": "HPLC purity", "setting": "[2]; […], 1 week", "value": 99.85, "unit": "Area %"},
      {"measurement": "Assay", "setting": "[2]; […], 2 weeks", "value": 95.6, "unit": "%"},
      {"measurement": "Form (XRPD)", "setting": "[2]; […], 2 weeks", "value": "Type A"},
      {"measurement": "HPLC purity", "setting": "[2]; […], 2 weeks", "value": 99.84, "unit": "Area %"},
      {"measurement": "Assay", "setting": "[2]; […], 4 weeks", "value": 96.5, "unit": "%"},
      {"measurement": "Form (XRPD)", "setting": "[2]; […], 4 weeks", "value": "Type A"},
      {"measurement": "HPLC purity", "setting": "[2]; […], 4 weeks", "value": 99.85, "unit": "Area %"},
      {"measurement": "KF (water content)", "setting": "[2]; […], 4 weeks", "value": 3.1154, "unit": "%"},
      {"measurement": "HPLC purity change after solid stability", "setting": "[2]; [3]", "value": "no form change, or obvious HPLC purity change"},
      {"measurement": "form change after solid stability", "setting": "[2]; [3]", "value": "no form change"}
    ]}
  ]
}
